Molecular target: T1, PASK (Invitrogen) (Homo sapiens, UniProt Q96RG2)
T1 construct: IC50 Kinase Domain; purchased Invitrogen
Test: PAS Kinase FRET Assay
Format: biochemical
Details: PAS kinase TR-FRET assay (665 nm/615 nm); read-out: IC50 Kinase Domain
Source text: Biochemical Assay for hPASK Activity
The aim of the FRET assay is to determine the inhibition potential of test compounds on targeted kinase. This assay platform provides a homogenous screening method for measuring kinase activity by quantitating the amount of phospho-substrate in solution following a kinase reaction.
In the presence of kinase and ATP, the Ulight-peptide is phosphorylated and captured by an anti-phospho-substrate antibody, which brings the Eu chelate donor and Ulight acceptor dyes into close proximity. Upon excitation at 340 nm, the Eu chelate transfers its energy to the Ulight dye, resulting in a fluorescent light emission at 665 nm.
Titration of kinase at 1 mM ATP was achieved via the following protocol. After making serial three-fold dilutions of PASK (Invitrogen) in reaction buffer across the plate; 5 μl of kinase dilution and 5 μl substrate/ATP mix were added to the wells of the white Optiplate-384 (PerkinElmer). The contents of the plate were and incubated at RT for 1 h. The reaction was stopped by adding 5 μl of stop solution to each test well followed by mixing and incubation at RT for 10 minutes. 5 μl of detection mix (detection antibody diluted in detection buffer) was added; the contents of the plate were mixed and then incubated in the dark for 1 hour at RT. The signal was recorded at TR-FRET mode (665 nm/615 nm). The results were graphed to calculate the EC50.
Titration of ATP at the EC50 concentration of kinase to determine ATP Km,app. was performed using the following method. After making serial dilutions of ATP (Invitrogen), 5 μl of ATP dilution and 5 μl substrate/kinase mix were added to the wells of the white Optiplate-384 (PerkinElmer). The contents of the plate were and incubated at RT for 1 h. The reaction was stopped by adding 5 μl of stop solution to each test well followed by mixing and incubation at RT for 10 minutes. 5 μl of detection mix (detection antibody diluted in detection buffer) was added; the contents of the plate were mixed and then incubated in the dark for 1 hour at RT. The signal was recorded at TR-FRET mode (665 nm/615 nm). The results were graphed to calculate the EC50 as the ATP Km,app.
Compound screening was done via the following method. 10 mM stock solution of test compound in DMSO was prepared by dissolving test compound in DMSO at RT for 1 hour, and then sonicating at 100% output for 8 minutes. If compound is not soluble under this condition, it was diluted to 3 mM. Kinase reaction buffer was prepared containing 10 mM MgCl2, 50 mM HEPES, 1 mM EGTA, 0.01% TWEEN-20, 2 mM DTT. Serial dilutions of the test compounds were prepared at 4× final assay concentrations using Freedom EVO200® dispensing system as follows: 12×10^−5 M, 4×10^−5 M, 1.33×10^−5 M, 4.44×10^−6 M, 1.48×10^−6 M, 4.92×10^−7 M, 1.65×10^−7 M, […], 1.82×10^−8M, 6.09×10^−9, 2.03×10^−9 M. Test compounds (2.5 μl at 4× the final assay concentration) was added to wells using Freedom EVO200® dispensing system. As a positive control, 2.5 μl of positive compound was added to assay wells, and 2.5 μl of DMSO to assay wells as vehicle control. Kinase solution was prepared in reaction buffer at 2× final assay concentration. Kinase solution (5 μl) was added to each well of the assay plate. The substrate and ATP solution was prepared in kinase reaction buffer at 4× final assay concentration. The kinase reaction was started by adding 2.5 μl of substrate+ATP mix solution to each well of the assay plate. The plate is mixed on a plate shaker; then covered and allowed to react for 2 hours in the dark at 25° C. without shaking. The reaction was stopped by adding 5 μl of stop solution to each test well followed by mixing and incubation at RT for 10 minutes in the dark. 5 μl of detection mix (detection antibody diluted in detection buffer) was added; the contents of the plate were mixed and then incubated in the dark for 1 hour at RT. The signal was recorded at TR-FRET mode (665 nm/615 nm).

T1 sequence (Q96RG2 999-1251 limits assumed): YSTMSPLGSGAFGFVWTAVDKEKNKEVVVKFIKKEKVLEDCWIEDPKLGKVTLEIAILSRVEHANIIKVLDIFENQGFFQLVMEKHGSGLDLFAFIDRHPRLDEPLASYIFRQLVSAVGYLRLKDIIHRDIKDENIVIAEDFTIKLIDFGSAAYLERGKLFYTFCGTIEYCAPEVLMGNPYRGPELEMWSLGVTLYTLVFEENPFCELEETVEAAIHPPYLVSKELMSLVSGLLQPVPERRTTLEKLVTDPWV

IC50, ≤ 10 µM:
O=c1cc(-c2ccc(Cl)cc2)[nH]c2c(-c3ncco3)cnn12 [Example 48, 5-(4-chlorophenyl)-3-(oxazol-2-yl)pyrazolo[1,5-a]pyrimidin-7(4H)-one]
CCn1nnc2cc(-c3cc(=O)n4ncc(-c5ncco5)c4[nH]3)ccc21 [Example 49, 5-(1-ethyl-1H-benzo[d][1,2,3]triazol-5-yl)-3-(oxazol-2-yl)pyrazolo[1,5-a]pyrimidin-7(4H)-one]
COc1cc(-c2cc(=O)n3ncc(-c4noc5ccccc45)c3[nH]2)ccc1Cl [Example 50, 3-(benzo[d]isoxazol-3-yl)-5-(4-chloro-3-methoxyphenyl)pyrazolo[1,5-a]pyrimidin-7(4H)-one]
COc1cc(-c2cc(=O)n3ncc(-c4cc(C)no4)c3[nH]2)ccc1Cl [Example 52, 5-(4-chloro-3-methoxyphenyl)-3-(3-methylisoxazol-5-yl)pyrazolo[1,5-a]pyrimidin-7(4H)-one]
CCn1ncc2cc(-c3cc(=O)n4ncc(-c5ccnn5C)c4[nH]3)ccc21 [Example 53, 5-(1-ethyl-1H-indazol-5-yl)-3-(1-methyl-1H-pyrazol-5-yl)pyrazolo[1,5-a]pyrimidin-7(4H)-one]
O=c1cc(-c2ccc(Cl)c(Cl)c2)[nH]c2c(-c3noc4ccccc34)cnn12 [Example 60, 3-(benzo[d]isoxazol-3-yl)-5-(3,4-dichlorophenyl)pyrazolo[1,5-a]pyrimidin-7(4H)-one]
Cc1noc(-c2cnn3c(=O)cc(-c4ccc5occc5c4)[nH]c23)n1 [Example 62, 5-(benzofuran-5-yl)-3-(3-methyl-1,2,4-oxadiazol-5-yl)-4H,7H-pyrazolo[1,5-a]pyrimidin-7-one]
COc1cc(-c2cc(=O)n3ncc(-c4ncc(-c5ccccc5)o4)c3[nH]2)ccc1Cl [Example 63, 5-(4-chloro-3-methoxyphenyl)-3-(5-phenyloxazol-2-yl)-4H,7H-pyrazolo[1,5-a]pyrimidin-7-one]
Cc1csc(-c2cnn3c(=O)cc(-c4ccc5c(cnn5C)c4)[nH]c23)n1 [Example 72, 5-(1-methyl-1H-indazol-5-yl)-3-(4-methylthiazol-2-yl)pyrazolo[1,5-a]pyrimidin-7(4H)-one]
N#Cc1cc(-c2cc(=O)n3ncc(-c4ncco4)c3[nH]2)ccc1O [Example 75, 2-hydroxy-5-(3-(oxazol-2-yl)-7-oxo-4,7-dihydropyrazolo[1,5-a]pyrimidin-5-yl)benzonitrile]
CC(C)Oc1cc(-c2cc(=O)n3ncc(-c4ccnn4C)c3[nH]2)ccc1Cl [Example 76, 5-(4-chloro-3-isopropoxyphenyl)-3-(1-methyl-1H-pyrazol-5-yl)pyrazolo[1,5-a]pyrimidin-7(4H)-one]
CCOc1cc(-c2cc(=O)n3ncc(-c4ccnn4C)c3[nH]2)ccc1F [Example 78, 5-(3-ethoxy-4-fluorophenyl)-3-(1-methyl-1H-pyrazol-5-yl)pyrazolo[1,5-a]pyrimidin-7(4H)-one]
CCNC(=O)Cc1cnn2c(=O)cc(-c3ccc(Cl)c(OC)c3)[nH]c12 [Example 80, 2-[5-(4-chloro-3-methoxyphenyl)-7-oxo-4H,7H-pyrazolo[1,5-a]pyrimidin-3-yl]-N-ethylacetamide]
CNC(=O)Cc1cnn2c(=O)cc(-c3ccc(Cl)c(OC)c3)[nH]c12 [Example 81, 2-(5-(4-chloro-3-methoxyphenyl)-7-oxo-4,7-dihydropyrazolo[1,5-a]pyrimidin-3-yl)-N-methylacetamide]
CC(C)n1ncc2cc(-c3cc(=O)n4ncc(-c5ccnn5C)c4[nH]3)ccc21 [Example 88, 5-(1-isopropyl-1H-indazol-5-yl)-3-(1-methyl-1H-pyrazol-5-yl)pyrazolo[1,5-a]pyrimidin-7(4H)-one]
Cc1coc(-c2cnn3c(=O)cc(-c4ccc5onc(C)c5c4)[nH]c23)n1 [Example 90, 5-(3-methylbenzo[d]isoxazol-5-yl)-3-(4-methyloxazol-2-yl)pyrazolo[1,5-a]pyrimidin-7(4H)-one]
Cc1noc(-c2cnn3c(=O)cc(-c4ccc(Cl)c(OCC(F)(F)F)c4)[nH]c23)n1 [Example 92, 5-[4-chloro-3-(2,2,2-trifluoroethoxy)phenyl]-3-(3-methyl-1,2,4-oxadiazol-5-yl)-4H,7H-pyrazolo[1,5-a]pyrimidin-7-one]
Cc1noc(-c2cnn3c(=O)cc(-c4ccc5c(c4)OCCO5)[nH]c23)n1 [Example 97, 5-(2,3-dihydrobenzo[b][1,4]dioxin-6-yl)-3-(3-methyl-1,2,4-oxadiazol-5-yl)pyrazolo[1,5-a]pyrimidin-7(4H)-one]
Cc1noc(-c2cnn3c(=O)cc(-c4ccc5c(cnn5C5COC5)c4)[nH]c23)n1 [Example 99, 3-(3-methyl-1,2,4-oxadiazol-5-yl)-5-(1-(oxetan-3-yl)-1H-indazol-5-yl)pyrazolo[1,5-a]pyrimidin-7(4H)-one]
Cc1csc(-c2cnn3c(=O)cc(-c4ccc(Cl)c(Cl)c4)[nH]c23)n1 [Example 101, 5-(3,4-dichlorophenyl)-3-(4-methylthiazol-2-yl)pyrazolo[1,5-a]pyrimidin-7(4H)-one]
Cc1cnc(-c2cnn3c(=O)cc(-c4ccc(Cl)c(Cl)c4)[nH]c23)s1 [Example 102, 5-(3,4-dichlorophenyl)-3-(5-methylthiazol-2-yl)pyrazolo[1,5-a]pyrimidin-7(4H)-one]
CCCn1ncc2cc(-c3cc(=O)n4ncc(-c5ncc(C)o5)c4[nH]3)ccc21 [Example 103, 3-(5-methyloxazol-2-yl)-5-(1-propyl-1H-indazol-5-yl)pyrazolo[1,5-a]pyrimidin-7(4H)-one]
CCn1nc(C)c2cc(-c3cc(=O)n4ncc(-c5ncc(C)o5)c4[nH]3)ccc21 [Example 105, 5-(1-Ethyl-3-methyl-1H-indazol-5-yl)-3-(5-methyloxazol-2-yl)pyrazolo[1,5-a]pyrimidin-7(4H)-one]
Cc1cnc(-c2cnn3c(=O)cc(-c4ccc(Cl)cc4)[nH]c23)s1 [Example 106, 5-(4-Chlorophenyl)-3-(5-methylthiazol-2-yl)pyrazolo[1,5-a]pyrimidin-7(4H)-one]
Cc1cnc(-c2cnn3c(=O)cc(-c4ccc5c(cnn5C)c4)[nH]c23)o1 [Example 107, 5-(1-Methyl-1H-indazol-5-yl)-3-(5-methyloxazol-2-yl)pyrazolo[1,5-a]pyrimidin-7(4H)-one]
Cn1ncc2cc(-c3cc(=O)n4ncc(C#N)c4[nH]3)ccc21 [Example 108, 5-(1-methyl-1H-indazol-5-yl)-7-oxo-4H,7H-pyrazolo[1,5-a]pyrimidine-3-carbonitrile]
CCn1ncc2ccc(-c3cc(=O)n4ncc(-c5ncco5)c4[nH]3)cc21 [Example 109, 5-(1-ethyl-1H-indazol-6-yl)-3-(oxazol-2-yl)pyrazolo[1,5-a]pyrimidin-7(4H)-one]

— patent publication US10392389B2, “Heterocyclic compounds for the inhibition of PASK” (BioEnergenix, LLC, priority 2012, dated 2019)
